One assay concerns AMPK. The assay is described as follows: Determination of AMPK activation in differentiated C2C12 myoblast cells (SAMS peptide, [γ-32P]ATP). It is filed as cell-based. Particulars: C2C12 myoblast cells treated at 5 μg/ml; DMSO (0.5%) control = 1. As for the experimental part:
Myoblast cells, C2C12, were cultured in DMEM containing 10% bovine calf serum. When a cell density reached a range of about 85% to 90%, the culture medium was replaced with a medium containing 1% bovine calf serum to induce differentiation of cells. The thus-differentiated myoblast cells were treated with samples synthesized in Examples 1 through 16 at a concentration of 5 μg/ml, and compared with a control group. Enzymatic activity of AMPK was determined as follows. Firstly, C2C12 cells were lysed to obtain protein extracts and then ammonium sulfate was added to a final concentration of 30%, thereby precipitating proteins. Protein precipitates were dissolved in a buffer (62.5 mM Hepes, pH 7.2, 62.5 mM NaCl, 62.5 mM NaF, 1.25 mM Na pyrophosphate, 1.25 mM EDTA, 1 mM DTT, 0.1 mM PMSF, and 200 μM AMP). Thereafter, 200 μM SAMS peptide (HMRSAMSGLHLVKRR: the underlined serine residue is a phosphorylation site, as an AMPK phosphorylation site of acetyl-CoA carboxylase) and [γ-32P]ATP were added thereto and reactants were reacted for 10 minutes at 30° C. This was followed by spotting of the resulting reaction solution on p81 phosphocellulose paper. The p81 paper was washed with a 3% phosphoric acid solution and radioactivity thereof was measured. For each reaction condition, reactions involving no SAMS peptide were also conducted and basic values were subtracted from the thus-observed values.

Assay [1] concerns C57BL/6JL Lep ob/Lep ob mice. The assay is described as follows: Weight loss effects in obese mice (ob/ob). It counts as in vivo. Particulars: mixed-feed of 0.4% for 18 days; for Increase in BW / change in vivo at 0.4 % in feed: (Final BW−Initial BW)/Initial BW×100; for Final BW: ob/ob male mice; for change in vivo at 0.4 % in feed: Mus musculus, po, 432 h, read-out: Increase in BW. As for the experimental part:
(§1) 10-week-old C57BL/6JL Lep ob/Lep ob male mice having obesity characteristics and predisposition were purchased from Daehan Biolink Co., Ltd. (Chungchongbuk-do, Korea). Animals were raised in a breeding room maintained at a temperature of 23° C., 55% humidity, illumination of 300 to 500 lux, a 12-h light/dark (L/D) cycle, and ventilation of 10 to 18 times/hr. Animals were fed ad libitum pellets of Purina Rodent Laboratory Chow 5001 (purchased from Purina Mills Inc., St. Louis, Mo., USA) as a solid feed for experimental animals and tap water as drinking water. Mice were allowed to acclimate to new environment of the breeding room for two weeks and were then administered some pyrano-3,4-phenanthrenequinone or furano-3,4-naphthoquinone derivatives synthesized according to the present invention at mixed-feed of 0.4% for 18 days. Observation was made on changes in body weight, blood glucose and dietary intake, with respect to a time course of administration. After administration was complete, confirm changes in glucose, lipid and enzyme levels in blood.
(§2) For comparison, the same experiments were carried out for the subject (negative control group) to which the active ingredient was not administered, and subject (positive control group) to which Cryptotanshinone, extracted from Danshen by a method as set forth in Example 1 of the Korean Patent Application No. 2004-0116339 by the present applicant, was administered by the above-mentioned condition.
Herein, ‘Increase in BW’ is calculated as the following; Increase in BW=(Final BW−Initial BW)/Initial BW×100

Assay [2] has as its system C57BL/6JL Lep ob/Lep ob mice. Nature of the assay: Blood biomarkers (lipid, glucose, enzyme levels) in ob/ob mice. The arrangement: unit not given here. It counts as in vivo. The following applies: after mixed-feed of 0.4% for 18 days. As to the method: as §1, §2

`CC1CC2=C(O1)c1ccc3c(c1C(=O)C2=O)CCCC3(C)C` (single isomer, unassigned) [Example 2, 2,6,6-Trimethyl-1,2,6,7,8,9-hexahydro-phenanthro[1,2-b]furan-10,11-dione] yielded an AMPK fold in the assay with AMPK of 2.4 fold. In assay [1], the “Increase in BW” value is on record as −15.9% and the “Final BW” value turned out to be 44.4 ± 3.4 g. Further, in assay [2] (listed as Ex. 2), the GOT is listed as 378.8, the GPT is given as 215.0, the HDL chol is 38.8 and the LDL chol was determined as 21.67. In assay [2] (listed as Ex. 2), this compound yielded a T. chol of 125.0, a glucose of 125 and a triglyceride of 58.8.

For `CC1CC2=C(O1)c1ccc3c(c1C(=O)C2=O)CCCC3(C)C` (single isomer, unassigned) [Example 3, 2,6,6-Trimethyl-1,2,6,7,8,9-hexahydro-phenanthro[1,2-b]furan-10,11-dione], the AMPK fold with AMPK is given as 2.2 fold. In addition, in assay [1], the “Increase in BW” value is −11.9% and the “Final BW” value stood at 46.1 ± 2.1 g. For the same compound, in assay [2] (listed as Ex. 3), the GOT was 247.5, the GPT was determined as 160.0, the HDL chol was 42.5 and the LDL chol stood at 12.00. For the same compound, in assay [2] (listed as Ex. 3), the T. chol was 134.0, the glucose is 132 and the triglyceride amounted to 61.7.

As to `CC1CC2=C(O1)c1ccc3c(c1C(=O)C2=O)CCCC3` (stereo not drawn) [Example 1, 2-Methyl-1,2,6,7,8,9-hexahydro-phenanthro[1,2-b]furan-10,11-dione], the AMPK fold in the assay with AMPK turned out to be 2.2 fold. Further, in assay [1], the change in vivo at 0.4 % in feed is -14.2% and the “Final BW” value stood at 45.3 ± 1.7 g. In assay [2], this compound yielded a GOT of 233.3, a GPT of 118.8, an HDL chol of 42.5 and an LDL chol of 13.00. Also, in assay [2], the T. chol was found to be 141.7, the glucose was found to be 120 and the triglyceride is reported as 81.7.

Regarding `CC1OC2=C(C(=O)C(=O)c3c2ccc2c3CCCC2(C)C)C1(C)C` (stereo not drawn) [Example 4, 1,1,2,6,6-Pentamethyl-1,2,6,7,8,9-hexahydro-phenanthro[1,2-b]furan-10,11-dione], the AMPK fold with AMPK was found to be 2.2 fold. Also, in assay [1], the change in vivo at 0.4 % in feed was -7.1% and the “Final BW” value is given as 48.6 ± 3.3 g. Moreover, in assay [2], the GOT was found to be 476.7, the GPT is 285.0, the HDL chol came out at 45.0 and the LDL chol is reported as 10.00. In assay [2], this compound yielded a T. chol of 127.5, a glucose of 128 and a triglyceride of 76.7.

In turn, `CC1C2=C(OC1(C)C)c1ccc3c(c1C(=O)C2=O)CCCC3(C)C` (stereo not drawn) [Example 5, 1,2,2,6,6-Pentamethyl-1,2,6,7,8,9-hexahydro-phenanthro[1,2-b]furan-10,11-dione] had an AMPK fold with AMPK of 2.3 fold. For the same compound, in assay [1], the change in vivo at 0.4 % in feed was -7.8% and the “Final BW” value amounted to 47.9 ± 3.1 g. Also, in assay [2], the GOT was determined as 377.5, the GPT was 251.0, the HDL chol is reported as 45.5 and the LDL chol is 14.05. In assay [2], the T. chol was found to be 126.5, the glucose was 141 and the triglyceride was determined as 77.0.

As to `CC1(C)CCC2=C(O1)c1ccc3c(c1C(=O)C2=O)CCCC3` [Example 6, 3,3-Dimethyl-2,3,7,8,9,10-hexahydro-1H-4-oxa-chrysene-11,12-dione], the AMPK fold with AMPK stood at 2.2 fold. For the same compound, in assay [1], the change in vivo at 0.4 % in feed is -6.3% and the “Final BW” value was determined as 49.0 ± 2.7 g. In assay [2], the GOT worked out at 392.5, the GPT was determined as 250.0, the HDL chol is reported as 49.0 and the LDL chol is 13.00. In assay [2], this compound had a T. chol of 129.5, a glucose of 145 and a triglyceride of 69.5.

In the assay on AMPK, `CC1CC2=C(O1)c1ccc3ccccc3c1C(=O)C2=O` (stereo not drawn) [Example 7, 2-Methyl-1,2-dihydro-phenanthro[1,2-b]furan-10,11-dione] showed an AMPK fold of 2.2 fold. In addition, in assay [1], the change in vivo at 0.4 % in feed is -3.9% and the “Final BW” value was determined as 49.6 ± 2.6 g. In assay [2], this compound yielded a GOT of 286.7, a GPT of 143.8, an HDL chol of 58.8 and an LDL chol of 14.00. Further, in assay [2], the T. chol was 148.8, the glucose was 156 and the triglyceride is given as 70.0.

For the compound `CC1OC2=C(C(=O)C(=O)c3c2ccc2ccccc32)C1(C)C` (stereo not drawn) [Example 8, 1,1,2-Trimethyl-1,2-dihydro-phenanthro[1,2-b]furan-10,11-dione], the AMPK fold in the assay on AMPK worked out at 2.5 fold. In addition, in assay [1], the change in vivo at 0.4 % in feed was -20.3% and the “Final BW” value is 41.1 ± 1.3 g. In assay [2], this compound had a GOT of 376.5, a GPT of 241.0, an HDL chol of 48.0 and an LDL chol of 13.75. In assay [2], this compound registered a T. chol of 132.5, a glucose of 118 and a triglyceride of 79.5.

`Cc1cc2c(c3ccccc13)C(=O)C(=O)C1=C2OC(C)C1` (stereo not drawn) [Example 9, 2,5-Dimethyl-1,2-dihydro-phenanthro[1,2-b]furan-10,11-dione] yielded an AMPK fold with AMPK of 2.3 fold. Moreover, in assay [1], the change in vivo at 0.4 % in feed was -6% and the “Final BW” value was 48.9 ± 1.7 g. Also, in assay [2], the GOT stood at 355.0, the GPT is on record as 77.0, the HDL chol was found to be 48.0 and the LDL chol was 11.00. Moreover, in assay [2], the T. chol is on record as 135.0, the glucose came out at 136 and the triglyceride stood at 72.0.

As to `Cc1cc2c(c3ccccc13)C(=O)C(=O)C1=C2OC(C)C1(C)C` (stereo not drawn) [Example 10, 1,1,2,5-Tetramethyl-1,2-dihydro-phenanthro[1,2-b]furan-10,11-dione], in the assay on AMPK, the AMPK fold came out at 2.4 fold. In addition, in assay [1], the change in vivo at 0.4 % in feed is -20.3% and the “Final BW” value is on record as 41.1 ± 1.3 g. In assay [2], this compound showed a GOT of 283.3, a GPT of 66.7, an HDL chol of 45.0 and an LDL chol of 5.00. In assay [2], this compound showed a T. chol of 115.0, a glucose of 121 and a triglyceride of 88.3.

In the case of `C[C@H]1COC2=C1C(=O)C(=O)c1c2ccc2c1CCCC2(C)C` [Positive control group, Cryptotanshinone, reference compound], in assay [1], the change in vivo at 0.4 % in feed was -1.2% and the “Final BW” value was 51.6 ± 1.7 g. For the same compound, in assay [2], the GOT was 255.0, the GPT was found to be 149.0, the HDL chol is recorded as 48.0 and the LDL chol was determined as 11.0. Moreover, in assay [2], the T. chol was 135.0 and the triglyceride was determined as 100.9.

The values above are taken from patent publication US8404869B2, “Phenanthrenequinone-based compound and pharmaceutical composition containing the same for the treatment or prevention of disease involving metabolic syndrome” (Mazence Inc., priority 2007, dated 2013).
